According to patent US8273880B2, “Pyrazole compounds with inhibitory activity against ROS kinase” (Korea Institute of Science and Technology, priority 2009, dated 2012):

Tests used:
Format in all cases: biochemical
MST4 = target: T1, MST4 (Homo sapiens, UniProt Q9P289); test: HotSpot kinase screening over 45 different kinases, single dose 10 μM; settings: single dose concentration of 10 μM, 10 μM ATP, compared to enzyme activity in DMSO control
T1 construct: purchased Reaction Biology Corporation
Description: (§1) Kinase screening was performed using a “HotSpot” assay platform commercially available from Reaction Biology Corporation. For this kinase screening, reaction buffers were based on 20 mM Hepes (pH 7.5), 10 mM MgCl2, 1 mM EGTA, 0.02% Brij35, 0.02 mg/mL BSA, 0.1 mM Na3VO4, 2 mM DTT, and 1% DMSO, with supplementary factors necessary for respective kinase reactions added thereto. In each enzyme reaction, […] of each kinase was used together with a fresh reaction buffer and appropriate supplementary factors. A solution of each compound in DMSO was added in a suitable concentration to the reaction buffer. Kinase reaction started with the introduction of […] (specific activity […]) and continued for 2 hours at room temperature.
(§2) 1) Screening of Compounds Over 45 Different Kinases
(§3) Each compound was tested twice at a single dose concentration of 10 μM. […] The reaction was performed with 10 μM ATP.

MUSK = target: T2, MUSK (Homo sapiens, UniProt O15146); test: as above; settings: single dose concentration of 10 μM, 10 μM ATP
T2 construct: purchased Reaction Biology Corporation
Description: as §1, §2, §3

EGFR = target: T3, EGFR (Homo sapiens, UniProt P00533); test: as above; settings: single dose concentration of 10 μM, 10 μM ATP
T3 construct: purchased Reaction Biology Corporation
Description: as §1, §2, §3

CHK1 = target: T4, CHK1 (Homo sapiens, UniProt O14757); test: as above; settings: single dose concentration of 10 μM, 10 μM ATP
T4 construct: purchased Reaction Biology Corporation
T4 sequence (O14757 whole entry): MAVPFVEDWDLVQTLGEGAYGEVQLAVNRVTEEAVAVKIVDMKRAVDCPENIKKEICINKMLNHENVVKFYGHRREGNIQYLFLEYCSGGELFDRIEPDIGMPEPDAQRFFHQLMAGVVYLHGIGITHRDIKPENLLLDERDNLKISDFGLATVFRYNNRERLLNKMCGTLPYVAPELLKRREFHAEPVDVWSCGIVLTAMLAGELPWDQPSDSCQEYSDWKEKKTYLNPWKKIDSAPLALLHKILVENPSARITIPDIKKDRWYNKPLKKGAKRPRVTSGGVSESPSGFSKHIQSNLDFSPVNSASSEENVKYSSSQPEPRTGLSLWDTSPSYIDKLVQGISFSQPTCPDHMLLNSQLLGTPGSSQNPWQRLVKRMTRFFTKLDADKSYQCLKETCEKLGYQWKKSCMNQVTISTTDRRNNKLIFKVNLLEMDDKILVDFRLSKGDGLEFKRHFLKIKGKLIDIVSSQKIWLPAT
Description: as §1, §2, §3

LYN = target: T5, LYN (Homo sapiens, UniProt P07948); test: as above; settings: single dose concentration of 10 μM, 10 μM ATP
T5 construct: purchased Reaction Biology Corporation
T5 sequence (P07948 whole entry): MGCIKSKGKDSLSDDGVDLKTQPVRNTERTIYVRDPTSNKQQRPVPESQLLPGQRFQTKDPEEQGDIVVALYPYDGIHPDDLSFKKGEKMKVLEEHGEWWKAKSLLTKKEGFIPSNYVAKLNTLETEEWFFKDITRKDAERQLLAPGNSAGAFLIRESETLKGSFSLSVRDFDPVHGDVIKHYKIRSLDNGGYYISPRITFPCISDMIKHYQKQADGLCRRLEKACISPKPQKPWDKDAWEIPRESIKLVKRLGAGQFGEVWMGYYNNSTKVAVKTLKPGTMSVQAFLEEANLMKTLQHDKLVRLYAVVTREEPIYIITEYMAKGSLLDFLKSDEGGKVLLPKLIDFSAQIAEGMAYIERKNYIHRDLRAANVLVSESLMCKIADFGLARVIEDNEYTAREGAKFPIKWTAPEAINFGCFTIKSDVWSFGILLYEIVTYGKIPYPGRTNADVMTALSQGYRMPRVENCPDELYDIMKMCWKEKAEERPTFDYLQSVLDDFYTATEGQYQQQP
Description: as §1, §2, §3

Aurora A = target: T6, Aurora A (Homo sapiens, UniProt O14965); test: as above; settings: single dose concentration of 10 μM, 10 μM ATP
T6 construct: purchased Reaction Biology Corporation
T6 sequence (O14965 whole entry): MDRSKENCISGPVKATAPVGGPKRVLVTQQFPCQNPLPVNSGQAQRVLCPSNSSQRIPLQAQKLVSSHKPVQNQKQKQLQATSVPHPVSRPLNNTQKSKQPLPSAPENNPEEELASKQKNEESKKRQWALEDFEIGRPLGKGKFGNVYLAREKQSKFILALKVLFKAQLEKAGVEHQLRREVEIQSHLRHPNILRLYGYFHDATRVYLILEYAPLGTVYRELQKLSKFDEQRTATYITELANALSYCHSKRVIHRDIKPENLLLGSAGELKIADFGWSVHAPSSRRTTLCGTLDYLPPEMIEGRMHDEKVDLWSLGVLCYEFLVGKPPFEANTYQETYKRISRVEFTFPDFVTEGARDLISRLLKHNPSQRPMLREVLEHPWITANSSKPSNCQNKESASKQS
Description: as §1, §2, §3

IKKa/CHUK = target: T7, IKKa/CHUK (Homo sapiens, UniProt O15111); test: as above; settings: single dose concentration of 10 μM, 10 μM ATP
T7 construct: purchased Reaction Biology Corporation
T7 sequence (O15111 whole entry): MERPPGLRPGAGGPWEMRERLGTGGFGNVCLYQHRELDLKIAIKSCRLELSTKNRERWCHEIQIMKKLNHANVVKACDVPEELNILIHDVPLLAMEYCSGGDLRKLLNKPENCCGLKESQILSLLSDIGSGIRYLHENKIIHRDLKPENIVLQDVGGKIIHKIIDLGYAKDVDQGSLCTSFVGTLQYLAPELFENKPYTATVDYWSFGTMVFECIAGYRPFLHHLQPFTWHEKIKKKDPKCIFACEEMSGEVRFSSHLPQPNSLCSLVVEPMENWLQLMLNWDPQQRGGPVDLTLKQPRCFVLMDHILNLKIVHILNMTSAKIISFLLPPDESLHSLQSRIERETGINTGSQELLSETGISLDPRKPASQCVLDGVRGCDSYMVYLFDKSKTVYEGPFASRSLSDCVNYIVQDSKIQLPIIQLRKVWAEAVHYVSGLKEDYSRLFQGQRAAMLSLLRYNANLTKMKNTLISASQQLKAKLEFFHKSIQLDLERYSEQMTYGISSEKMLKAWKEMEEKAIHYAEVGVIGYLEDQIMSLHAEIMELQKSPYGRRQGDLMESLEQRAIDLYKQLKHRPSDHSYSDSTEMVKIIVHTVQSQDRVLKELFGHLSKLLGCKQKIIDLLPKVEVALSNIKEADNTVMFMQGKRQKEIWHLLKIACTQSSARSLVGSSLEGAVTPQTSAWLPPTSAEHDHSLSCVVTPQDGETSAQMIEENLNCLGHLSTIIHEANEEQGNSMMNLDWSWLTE
Description: as §1, §2, §3

PKCa = target: T8, PKCa (Homo sapiens, UniProt P17252); test: as above; settings: single dose concentration of 10 μM, 10 μM ATP
T8 construct: purchased Reaction Biology Corporation
Description: as §1, §2, §3

RET = target: T9, RET (Homo sapiens, UniProt P07949); test: as above; settings: single dose concentration of 10 μM, 10 μM ATP
T9 construct: purchased Reaction Biology Corporation
Description: as §1, §2, §3

ABL1 = target: T10, ABL1 (Homo sapiens, UniProt P00519); test: as above; settings: single dose concentration of 10 μM, 10 μM ATP
T10 construct: purchased Reaction Biology Corporation
Description: as §1, §2, §3

FGFR1 = target: T11, FGFR1 (Homo sapiens, UniProt P11362); test: as above; settings: single dose concentration of 10 μM, 10 μM ATP
T11 construct: purchased Reaction Biology Corporation
T11 sequence (P11362 22-822): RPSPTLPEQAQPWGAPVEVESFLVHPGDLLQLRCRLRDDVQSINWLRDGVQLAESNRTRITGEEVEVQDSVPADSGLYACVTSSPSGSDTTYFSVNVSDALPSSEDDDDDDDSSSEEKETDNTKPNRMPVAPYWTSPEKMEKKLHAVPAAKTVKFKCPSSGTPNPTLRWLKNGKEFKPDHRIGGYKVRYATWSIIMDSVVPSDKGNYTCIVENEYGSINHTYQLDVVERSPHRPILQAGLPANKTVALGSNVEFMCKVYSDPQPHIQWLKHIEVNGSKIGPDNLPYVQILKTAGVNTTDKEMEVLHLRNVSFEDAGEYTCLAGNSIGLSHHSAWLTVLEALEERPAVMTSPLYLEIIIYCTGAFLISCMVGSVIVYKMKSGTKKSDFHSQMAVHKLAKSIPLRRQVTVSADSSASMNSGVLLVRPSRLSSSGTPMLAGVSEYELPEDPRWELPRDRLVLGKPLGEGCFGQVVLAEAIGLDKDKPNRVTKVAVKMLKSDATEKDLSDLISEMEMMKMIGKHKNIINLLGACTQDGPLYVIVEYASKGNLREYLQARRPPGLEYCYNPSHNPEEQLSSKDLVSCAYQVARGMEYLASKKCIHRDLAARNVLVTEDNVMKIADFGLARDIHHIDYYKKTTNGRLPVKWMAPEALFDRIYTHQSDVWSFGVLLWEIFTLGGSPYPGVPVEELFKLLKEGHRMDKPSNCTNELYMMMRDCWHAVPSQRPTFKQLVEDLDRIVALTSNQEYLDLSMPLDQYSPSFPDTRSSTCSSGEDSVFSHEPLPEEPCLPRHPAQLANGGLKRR
Description: as §1, §2, §3

FGR = target: T12, FGR (Homo sapiens, UniProt P09769); test: as above; settings: single dose concentration of 10 μM, 10 μM ATP
T12 construct: purchased Reaction Biology Corporation
Description: as §1, §2, §3

KDR/VEGFR2 = target: T13, KDR/VEGFR2 (Homo sapiens, UniProt P35968); test: as above; settings: single dose concentration of 10 μM, 10 μM ATP
T13 construct: purchased Reaction Biology Corporation
Description: as §1, §2, §3

P38a/MAPK14 = target: T14, P38a/MAPK14 (Homo sapiens, UniProt Q16539); test: as above; settings: single dose concentration of 10 μM, 10 μM ATP
T14 construct: purchased Reaction Biology Corporation
T14 sequence (Q16539 whole entry): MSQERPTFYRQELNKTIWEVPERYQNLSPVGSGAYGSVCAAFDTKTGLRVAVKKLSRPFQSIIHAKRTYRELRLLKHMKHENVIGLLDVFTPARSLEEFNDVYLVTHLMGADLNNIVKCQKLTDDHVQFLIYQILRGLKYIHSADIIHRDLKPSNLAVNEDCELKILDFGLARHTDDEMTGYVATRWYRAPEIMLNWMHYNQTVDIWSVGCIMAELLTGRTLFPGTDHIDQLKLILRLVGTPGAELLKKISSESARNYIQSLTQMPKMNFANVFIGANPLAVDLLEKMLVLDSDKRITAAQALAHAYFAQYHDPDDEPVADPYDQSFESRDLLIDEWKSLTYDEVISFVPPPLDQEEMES
Description: as §1, §2, §3

YES = target: T15, YES (Homo sapiens, UniProt P07947); test: as above; settings: single dose concentration of 10 μM, 10 μM ATP
T15 construct: purchased Reaction Biology Corporation
Description: as §1, §2, §3

FAK/PTK2 = target: T16, FAK/PTK2 (Homo sapiens, UniProt Q05397); test: as above; settings: single dose concentration of 10 μM, 10 μM ATP
T16 construct: purchased Reaction Biology Corporation
Description: as §1, §2, §3

Ros/Ros1 = target: T17, Ros/Ros1 (Homo sapiens, UniProt P08922); test: as above; settings: single dose concentration of 10 μM, 10 μM ATP
T17 construct: purchased Reaction Biology Corporation
Description: as §1, §2, §3

HIPK1 = target: T18, HIPK1 (Homo sapiens, UniProt Q86Z02); test: as above; settings: single dose concentration of 10 μM, 10 μM ATP
T18 construct: purchased Reaction Biology Corporation
Description: as §1, §2, §3

RAF1 = test: as above; settings: single dose concentration of 10 μM, 10 μM ATP
Description: as §1, §2, §3

c-Src = target: T19, c-Src (Homo sapiens, UniProt P12931); test: as above; settings: single dose concentration of 10 μM, 10 μM ATP
T19 construct: purchased Reaction Biology Corporation
T19 sequence (P12931 whole entry): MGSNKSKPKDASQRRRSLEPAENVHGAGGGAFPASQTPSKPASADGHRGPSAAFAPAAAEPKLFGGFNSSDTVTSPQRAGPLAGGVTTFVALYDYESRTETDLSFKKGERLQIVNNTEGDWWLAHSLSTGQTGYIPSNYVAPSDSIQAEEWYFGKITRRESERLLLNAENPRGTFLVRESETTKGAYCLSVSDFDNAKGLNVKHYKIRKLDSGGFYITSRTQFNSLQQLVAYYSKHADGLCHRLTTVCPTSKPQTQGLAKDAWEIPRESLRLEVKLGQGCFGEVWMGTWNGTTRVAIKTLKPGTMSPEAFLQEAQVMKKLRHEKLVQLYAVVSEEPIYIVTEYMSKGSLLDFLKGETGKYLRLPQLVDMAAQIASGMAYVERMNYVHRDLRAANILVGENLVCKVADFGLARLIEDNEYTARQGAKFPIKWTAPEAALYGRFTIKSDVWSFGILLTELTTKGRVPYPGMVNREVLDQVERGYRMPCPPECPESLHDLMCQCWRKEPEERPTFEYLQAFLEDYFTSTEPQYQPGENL
Description: as §1, §2, §3

DAPK1 = target: T20, DAPK1 (Homo sapiens, UniProt P53355); test: as above; settings: single dose concentration of 10 μM, 10 μM ATP
T20 construct: purchased Reaction Biology Corporation
Description: as §1, §2, §3

AKT1 (dPH, S473D) = target: T21, AKT1 (dPH, S473D) (Homo sapiens, UniProt P31749, S473D); test: as above; settings: single dose concentration of 10 μM, 10 μM ATP
T21 construct: AKT1 (dPH, S473D); purchased Reaction Biology Corporation
T21 sequence (P31749 118-480 S473D limits assumed): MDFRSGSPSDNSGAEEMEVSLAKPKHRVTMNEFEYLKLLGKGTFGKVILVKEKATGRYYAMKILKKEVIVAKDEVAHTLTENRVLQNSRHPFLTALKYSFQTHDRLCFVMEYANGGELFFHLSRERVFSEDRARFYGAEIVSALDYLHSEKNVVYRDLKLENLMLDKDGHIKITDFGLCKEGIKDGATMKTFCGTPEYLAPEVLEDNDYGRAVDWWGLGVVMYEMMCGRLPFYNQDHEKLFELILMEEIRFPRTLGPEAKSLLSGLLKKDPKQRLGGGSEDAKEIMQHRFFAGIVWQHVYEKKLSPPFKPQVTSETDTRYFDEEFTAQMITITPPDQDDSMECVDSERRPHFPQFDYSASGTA
Description: as §1, §2, §3

FYN = target: T22, FYN (Homo sapiens, UniProt P06241); test: as above; settings: single dose concentration of 10 μM, 10 μM ATP
T22 construct: purchased Reaction Biology Corporation
Description: as §1, §2, §3

ROS kinase = ROS kinase (Homo sapiens, UniProt P08922); test: ROS kinase screening (HotSpot, IC50 mode); parameters: purchased Reaction Biology Corporation; settings: 10-dose IC50 mode starting from 20 μM; 10 μM ATP; read-out: Inhibitory Activity against ROS (IC50)
Description: as §1
The reaction was performed with 10 μM ATP.

[1] = compared to enzyme activity in DMSO control

Work on `Cc1cc(O)cc(-c2nn(CC#N)cc2-c2cc(NC[C@H](C)O)nc(-c3cccnc3)n2)c1` [Example 10, [4-[6-(2(S)-hydroxypropylamino)-2-pyridin-3-yl-pyrimidin-4-yl]-3-(3-hydroxy-5-methylphenyl)-pyrazol-1-yl]acetonitrile] yielded an activity at 10 µM (MST4) of 102%, an inhibition at 10 µM (MUSK) of -0.42% and an activity at 10 µM (MUSK; [1]) of 100%. It also gave an inhibition at 10 µM (EGFR) of -2.23%, an activity at 10 µM (EGFR; [1]) of 102% and an inhibition at 10 µM (CHK1) of 2.36%. It also gave an activity at 10 µM (CHK1; [1]) of 97.6%, an inhibition at 10 µM (LYN) of -1.45% and an activity at 10 µM (LYN; [1]) of 101%. The inhibition at 10 µM (Aurora A) was 21.8%, the activity at 10 µM (Aurora A; [1]) was 78.2% and the inhibition at 10 µM (IKKa/CHUK) was 1.37%. The activity at 10 µM (IKKa/CHUK; [1]) was 98.6%, the inhibition at 10 µM (PKCa) was 9.23% and the activity at 10 µM (PKCa; [1]) was 90.8%. The inhibition at 10 µM (RET) was 6.65%, the activity at 10 µM (RET; [1]) was 93.3% and the inhibition at 10 µM (ABL1) was 20.4%. The activity at 10 µM (ABL1; [1]) was 79.6%, the inhibition at 10 µM (FGFR1) was -8.05% and the activity at 10 µM (FGFR1; [1]) was 108%. The inhibition at 10 µM (FGR) was 3.34%, the activity at 10 µM (FGR; [1]) was 96.7% and the inhibition at 10 µM (KDR/VEGFR2) was -5.84%. It also gave an activity at 10 µM (KDR/VEGFR2; [1]) of 106%, an inhibition at 10 µM (P38a/MAPK14) of 5.27% and an activity at 10 µM (P38a/MAPK14; [1]) of 94.7%. The inhibition at 10 µM (YES) was -2.59%, the activity at 10 µM (YES; [1]) was 103% and the inhibition at 10 µM (FAK/PTK2) was 3.43%. The activity at 10 µM (FAK/PTK2; [1]) was 96.6%, the inhibition at 10 µM (Ros/Ros1) was 93.9% and the activity at 10 µM (Ros/Ros1; [1]) was 6.08%. For the same compound, the inhibition at 10 µM (HIPK1) was -3.43%, the activity at 10 µM (HIPK1; [1]) was 103% and the “Inhibition (%)” value (RAF1) was 20.39%. For the same compound, the “Activity (%)” value (RAF1; [1]) was 79.61%, the inhibition at 10 µM (c-Src) was 16.2% and the activity at 10 µM (c-Src; [1]) was 83.8%. The inhibition at 10 µM (DAPK1) was -1.17%, the activity at 10 µM (DAPK1; [1]) was 101% and the inhibition at 10 µM (AKT1 (dPH, S473D)) was -2.97%. The activity at 10 µM (AKT1 (dPH, S473D); [1]) was 103%, the inhibition at 10 µM (FYN) was -7.86% and the activity at 10 µM (FYN; [1]) was 108%. For the same compound, the IC50 (ROS kinase) was 199 nM.
